Data: patent US20240158446A1, “CYCLIC COMPOUND HAVING SELECTIVE INHIBITORY ACTION ON KRAS OVER HRAS AND NRAS” (CHUGAI SEIYAKU KABUSHIKI KAISHA, priority 2021, published 2024)
Like-named read-outs stand apart in the source and are kept apart here. *1 amine or outer side, *2 acyl side, *3 side chain or, on linkers, in order; H or OH if unused. Where a SMILES comes first, the peptide text is derived from it. Bridges are numbered along the chain shown (N, C = ends). [ ]: non-standard residue; d: D form. The star is where a group is joined. hPhe(3,5-F2-4-CF3) = N[C@@H](CCc1cc(F)c(C(F)(F)F)c(F)c1)C(=O)O; hPhe(3-Cl-4-CF3) = N[C@@H](CCc1ccc(C(F)(F)F)c(Cl)c1)C(=O)O; X36 = Cc1ccc(C[C@@H](C(=O)[*:2])N(CCC(F)(F)F)[*:1])cc1; NPrPhe(4-CF3) = CCCN[C@@H](Cc1ccc(C(F)(F)F)cc1)C(=O)O; X13 = O=C([C@@H](N[*:1])C1CC(F)(F)C1)[*:2]; NMeGly(cPent) = CN[C@H](C(=O)O)C1CCCC1; NMeD = CN[C@@H](CC(=O)O)C(=O)O; NMeL = CN[C@@H](CC(C)C)C(=O)O; Morpholide = C1CN(*)CCO1; NMeA = CN[C@@H](C)C(=O)O; Ac5c = NC1(C(=O)O)CCCC1; Aze = O=C(O)[C@@H]1CCN1; NPrGly = CCCNCC(=O)O; Sar = CNCC(=O)O

Assays:
[1] = target: GDP-bound KRAS wild-type protein (Homo sapiens, UniProt P01116); assay: Binding to KRAS by surface plasmon resonance (SPR), Single Cycle Kinetics; conditions: GDP-bound KRAS wild-type protein, read-out: KRAS KD
Chain of GDP-bound KRAS wild-type protein (P01116 whole entry): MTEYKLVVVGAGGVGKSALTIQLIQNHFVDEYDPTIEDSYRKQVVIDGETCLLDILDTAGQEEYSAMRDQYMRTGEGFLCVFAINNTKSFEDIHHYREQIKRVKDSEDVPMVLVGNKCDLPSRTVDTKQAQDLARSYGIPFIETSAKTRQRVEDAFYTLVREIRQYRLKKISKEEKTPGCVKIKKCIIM

[2] = target: GDP-bound NRAS wild-type protein (Homo sapiens, UniProt P01111); assay: Binding to NRAS by surface plasmon resonance (SPR), Single Cycle Kinetics; conditions: SPR, GDP-bound NRAS wild-type protein vs GDP-bound KRAS wild-type protein
Chain of GDP-bound NRAS wild-type protein (P01111 whole entry): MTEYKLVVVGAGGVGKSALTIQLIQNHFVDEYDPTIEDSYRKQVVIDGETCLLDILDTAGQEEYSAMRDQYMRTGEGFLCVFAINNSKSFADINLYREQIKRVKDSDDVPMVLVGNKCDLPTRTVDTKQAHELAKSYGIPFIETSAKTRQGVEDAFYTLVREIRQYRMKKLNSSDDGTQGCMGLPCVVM

[3] = target: GDP-bound HRAS wild-type protein (Homo sapiens, UniProt P01112); assay: Binding to HRAS by surface plasmon resonance (SPR), Single Cycle Kinetics; conditions: SPR, GDP-bound HRAS wild-type protein vs GDP-bound KRAS wild-type protein
Chain of GDP-bound HRAS wild-type protein (P01112 whole entry): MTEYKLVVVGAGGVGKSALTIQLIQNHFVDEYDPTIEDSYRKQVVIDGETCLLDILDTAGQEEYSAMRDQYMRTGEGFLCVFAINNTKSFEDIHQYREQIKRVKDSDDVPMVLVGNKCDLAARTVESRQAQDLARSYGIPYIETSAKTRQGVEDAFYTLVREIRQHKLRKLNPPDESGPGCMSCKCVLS

[4] = SPR Single Cycle Kinetics, 1:1 binding model

Kd [1, 4]	Kd ([1]; SPR, Single Cycle Kinetics)	SMILES	NRAS/KRAS (ratio of KD value for NRAS to KD value for KRAS) [2]	HRAS/KRAS (ratio of KD value for HRAS to KD value for KRAS) [3]	other results
80 pM	–	CCCN1C(=O)CN(C)C(=O)CN(C)C(=O)[C@H](C2CC(F)(F)C2)NC(=O)[C@H](CC(C)C)N(C)C(=O)C[C@@H](C(=O)N(C)C)N(C)C(=O)[C@H](C2CCCC2)N(C)C(=O)C2(CCCC2)NC(=O)[C@@H]2CCCN2C(=O)[C@H](CCc2cc(F)c(C(F)(F)F)c(F)c2)NC(=O)CN(C)C(=O)[C@@H]1Cc1ccc(C(F)(F)F)cc1 [PP0748] ([NMeL][X13][Sar][Sar][NPrPhe(4-CF3)][Sar][hPhe(3,5-F2-4-CF3)]P[Ac5c][NMeGly(cPent)][NMeD]-NMe2; lactam N-11)	–	–	NRAS/KRAS (ratio of KD value with respect to NRAS to KD value with respect to KRAS) [2]: B (a compound having 3 or more and less than 10 is denoted as B); HRAS/KRAS (ratio of KD value with respect to HRAS to KD value with respect to KRAS) [3]: B (a compound having 3 or more and less than 10 is denoted as B)
–	100 pM	CCO[C@@H]1C[C@H]2C(=O)NC3(CC(C)(C)C3)C(=O)N(C)[C@@H](C(CC)CC)C(=O)N(C)[C@H](C(=O)N(C)C)CC(=O)N(C)[C@H]3CCCCCCc4ccc(cc4)C[C@@H](C(=O)N(C)CC(=O)N[C@@H](CCc4ccc(C(F)(F)F)c(OC)c4)C(=O)N2C1)N1CC/C=C\C[C@@H](C1=O)N(C)C(=O)CN(C)C(=O)[C@H]([C@@H](C)CC)NC3=O [PP3032]	AA (a compound having 20 or more is denoted as AA)	A (a compound having 10 or more and less than 20 is denoted as A)	–
–	940 pM	CCO[C@@H]1C[C@H]2C(=O)NC3(CCCC3)C(=O)N(C)[C@@H](C3CCCC3)C(=O)N(C)[C@H](C(=O)N(C)C)CC(=O)N(C)[C@@H](CC)C(=O)N[C@@H]([C@@H](C)CC)C(=O)N(C)CC(=O)N(C)[C@H]3CC(C)=C(C)CN(C3=O)[C@@H](Cc3ccc(C(F)(F)F)cc3)C(=O)N(C)CC(=O)N[C@@H](CCc3cc(F)c(C(F)(F)F)c(F)c3)C(=O)N2C1 [PP1050]	C (A compound having a KD ratio of 0.1 or more and less than 3 is denoted as C)	C (A compound having a KD ratio of 0.1 or more and less than 3 is denoted as C)	–
230 pM	–	CC[C@H](C)[C@@H]1NC(=O)[C@H](CC(C)C)N(C)C(=O)C[C@@H](C(=O)N2CCOCC2)N(C)C(=O)[C@H](C2CCCC2)N(C)C(=O)C2(CCCC2)NC(=O)[C@@H]2CCCN2C(=O)[C@H](CCc2ccc(C(F)(F)F)c(Cl)c2)NC(=O)CN(C)C(=O)[C@H](Cc2ccc(C)cc2)N(CCC(F)(F)F)C(=O)[C@@H]2CCN2C(=O)[C@H](C)N(C)C1=O [PP0091] ([NMeL]I[NMeA][Aze][X36][Sar][hPhe(3-Cl-4-CF3)]P[Ac5c][NMeGly(cPent)][NMeD]-Morpholide; lactam N-11)	C (A compound having a KD ratio of 0.1 or more and less than 3 is denoted as C)	B (a compound having 3 or more and less than 10 is denoted as B)	–
–	570 pM	CCO[C@@H]1C[C@H]2C(=O)NC3(CCC3)C(=O)N(C)[C@@H](C3CCCC3)C(=O)N(C)[C@H](C(=O)N3CCOCC3)CC(=O)N(C)[C@@H](CC)C(=O)N[C@@H]([C@@H](C)CC)C(=O)N(C)CC(=O)N(C)[C@H]3CC(C)=CCN(C3=O)[C@@H](Cc3ccc(C(F)(F)F)cc3)C(=O)N(C)CC(=O)N[C@@H](CCc3cc(F)c(C(F)(F)F)c(F)c3)C(=O)N2C1 [PP1041]	C (A compound having a KD ratio of 0.1 or more and less than 3 is denoted as C)	C (A compound having a KD ratio of 0.1 or more and less than 3 is denoted as C)	–
470 pM	–	CCCN1CC(=O)N2CC[C@H]2C(=O)N(CCC)[C@@H](Cc2ccc(C(F)(F)F)cc2)C(=O)N(C)CC(=O)N[C@@H](CCc2ccc(C(F)(F)F)c(Cl)c2)C(=O)N2CCC[C@H]2C(=O)NC2(CCCC2)C(=O)N(C)[C@@H](C2CCCC2)C(=O)N(C)[C@H](C(=O)N2CCOCC2)CC(=O)N(C)[C@@H](CC(C)C)C(=O)N[C@@H]([C@@H](C)CC)C1=O [PP0274] ([NMeL]I[NPrGly][Aze][NPrPhe(4-CF3)][Sar][hPhe(3-Cl-4-CF3)]P[Ac5c][NMeGly(cPent)][NMeD]-Morpholide; lactam N-11)	C (A compound having a KD ratio of 0.1 or more and less than 3 is denoted as C)	B (a compound having 3 or more and less than 10 is denoted as B)	–
–	–	CCO[C@@H]1C[C@H]2C(=O)NC3(CC(C)(C)C3)C(=O)N(C)[C@@H](C(CC)CC)C(=O)N3CCC[C@@H]3CC(=O)N(C)[C@@H](CC)C(=O)N[C@@H]([C@@H](C)CC)C(=O)N(C)CC(=O)N(C)[C@H]3C/C=C\CCN(C3=O)[C@@H](Cc3ccc(C(F)(F)F)cc3)C(=O)N(C)CC(=O)N[C@@H](CCc3cc(F)c(C(F)(F)F)c(F)c3)C(=O)N2C1 [PP1605]	–	–	Kd ([1]; SPR, Single Cycle Kinetics, 1:1 binding model): 790 pM; NRAS/KRAS (ratio of KD value for NRAS to KD value for KRAS) ([2]; KD ratio class): A (a compound having 10 or more and less than 20 is denoted as A); HRAS/KRAS (ratio of KD value for HRAS to KD value for KRAS) ([3]; KD ratio class): A (a compound having 10 or more and less than 20 is denoted as A)
